Results on four compounds are retold here after article PMC7827406, “Structure–Activity Relationship (SAR) Study of Spautin-1 to Entail the Discovery of Novel NEK4 Inhibitors” (International Journal of Molecular Sciences, 2021).

Like-named read-outs stand apart in the source and are kept apart here.

Common to all, as to test: biochemical
Holding throughout (set-up): Eurofins KinaseProfiler full panel at Km ATP, residual kinase activity (%) relative to DMSO

Assay [1] addresses ATM(h) (Homo sapiens, UniProt Q13315). In short, it runs like this: (§1)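 Two 10 µM single-concentration screens were run: a competition-binding screen, in which DNA-tagged kinase bound to immobilized ligands was quantified by qPCR, and a radiometric activity panel at Km ATP. Each is expressed as residual kinase activity (%).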
Assay [2] has as its target T1, BrSK1(h) (Homo sapiens, UniProt Q8TDC3).
T1 sequence (Q8TDC3 1-778): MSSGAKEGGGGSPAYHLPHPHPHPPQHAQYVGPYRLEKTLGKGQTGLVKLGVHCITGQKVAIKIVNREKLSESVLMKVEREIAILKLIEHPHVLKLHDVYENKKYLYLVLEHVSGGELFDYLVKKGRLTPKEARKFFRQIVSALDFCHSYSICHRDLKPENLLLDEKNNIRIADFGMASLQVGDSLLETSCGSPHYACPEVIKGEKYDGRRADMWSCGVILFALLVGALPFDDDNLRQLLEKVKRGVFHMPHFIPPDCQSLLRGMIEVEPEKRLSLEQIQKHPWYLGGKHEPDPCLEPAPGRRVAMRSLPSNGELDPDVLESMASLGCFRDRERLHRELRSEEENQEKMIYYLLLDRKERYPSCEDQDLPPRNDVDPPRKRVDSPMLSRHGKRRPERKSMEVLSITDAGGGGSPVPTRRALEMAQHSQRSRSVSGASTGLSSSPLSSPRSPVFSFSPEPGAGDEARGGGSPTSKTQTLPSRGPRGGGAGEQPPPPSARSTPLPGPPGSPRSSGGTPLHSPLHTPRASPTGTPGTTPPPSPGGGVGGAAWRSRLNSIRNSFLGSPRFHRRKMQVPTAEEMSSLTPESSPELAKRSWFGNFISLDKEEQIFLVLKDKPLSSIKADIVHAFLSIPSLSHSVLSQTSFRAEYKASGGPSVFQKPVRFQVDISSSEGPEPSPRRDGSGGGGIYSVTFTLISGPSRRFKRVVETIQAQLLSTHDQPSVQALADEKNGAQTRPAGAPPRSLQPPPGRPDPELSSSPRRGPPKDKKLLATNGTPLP
In short, it runs like this: as §1

The target in assay [3] is EphA7(h) (Homo sapiens, UniProt Q15375). In short, it runs like this: as §1
Assay [4] concerns the target JAK1(h) (Homo sapiens, UniProt P23458). In outline: as §1
Assay [5] addresses LIMK1(h) (Homo sapiens, UniProt P53667). In short, it runs like this: as §1
The target of assay [6] is T2, MAPKAP-K2(h) (Homo sapiens, UniProt P49137).
T2 construct: gene MAPKAPK2
In outline: as §1

In assay [7] the target is T3, Mnk2(h) (Homo sapiens, UniProt Q9HBH9).
T3 construct: gene MKNK2
T3 sequence (Q9HBH9 whole entry): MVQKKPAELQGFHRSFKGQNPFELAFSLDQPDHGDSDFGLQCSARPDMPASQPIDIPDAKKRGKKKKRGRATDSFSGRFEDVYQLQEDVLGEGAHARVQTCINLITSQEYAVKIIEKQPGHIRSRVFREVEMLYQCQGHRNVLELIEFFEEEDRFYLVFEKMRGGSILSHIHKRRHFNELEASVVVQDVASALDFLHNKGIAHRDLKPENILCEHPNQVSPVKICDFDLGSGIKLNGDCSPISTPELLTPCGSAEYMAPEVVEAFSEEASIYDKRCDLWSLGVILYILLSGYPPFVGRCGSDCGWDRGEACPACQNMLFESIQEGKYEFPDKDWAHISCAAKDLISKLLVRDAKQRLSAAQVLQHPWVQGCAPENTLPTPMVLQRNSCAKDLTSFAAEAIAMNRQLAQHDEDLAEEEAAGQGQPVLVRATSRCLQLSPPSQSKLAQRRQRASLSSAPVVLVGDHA
In short, it runs like this:
as §1

Assay [8] deals with T4, PI3 Kinase (p110a/p65a)(h) (Homo sapiens, UniProt P42336).
T4 construct: gene PIK3CA; with p65a
In short, it runs like this: as §1

Assay [9] addresses T5, PI3 Kinase (p110b/p85a)(h) (Homo sapiens, UniProt P42338).
T5 construct: gene PIK3CB
In short, it runs like this: as §1

Assay [10] concerns the target T6, PKCα(h) (Homo sapiens, UniProt P17252).
T6 construct: gene PRKCA
In outline: as §1

Assay [11] concerns the target T7, SIK(h) (Homo sapiens, UniProt P57059).
T7 construct: gene SIK1
In outline: as §1

Assay [12] addresses STK32A(h) (Homo sapiens, UniProt Q8WU08). In outline: as §1
The target in assay [13] is TNIK(h) (Homo sapiens, UniProt Q9UKE5). In outline:
as §1

Assay [14] deals with WNK1(h) (Homo sapiens, UniProt Q9H4A3). In outline: as §1
Sequence of WNK1(h) (Q9H4A3 whole entry): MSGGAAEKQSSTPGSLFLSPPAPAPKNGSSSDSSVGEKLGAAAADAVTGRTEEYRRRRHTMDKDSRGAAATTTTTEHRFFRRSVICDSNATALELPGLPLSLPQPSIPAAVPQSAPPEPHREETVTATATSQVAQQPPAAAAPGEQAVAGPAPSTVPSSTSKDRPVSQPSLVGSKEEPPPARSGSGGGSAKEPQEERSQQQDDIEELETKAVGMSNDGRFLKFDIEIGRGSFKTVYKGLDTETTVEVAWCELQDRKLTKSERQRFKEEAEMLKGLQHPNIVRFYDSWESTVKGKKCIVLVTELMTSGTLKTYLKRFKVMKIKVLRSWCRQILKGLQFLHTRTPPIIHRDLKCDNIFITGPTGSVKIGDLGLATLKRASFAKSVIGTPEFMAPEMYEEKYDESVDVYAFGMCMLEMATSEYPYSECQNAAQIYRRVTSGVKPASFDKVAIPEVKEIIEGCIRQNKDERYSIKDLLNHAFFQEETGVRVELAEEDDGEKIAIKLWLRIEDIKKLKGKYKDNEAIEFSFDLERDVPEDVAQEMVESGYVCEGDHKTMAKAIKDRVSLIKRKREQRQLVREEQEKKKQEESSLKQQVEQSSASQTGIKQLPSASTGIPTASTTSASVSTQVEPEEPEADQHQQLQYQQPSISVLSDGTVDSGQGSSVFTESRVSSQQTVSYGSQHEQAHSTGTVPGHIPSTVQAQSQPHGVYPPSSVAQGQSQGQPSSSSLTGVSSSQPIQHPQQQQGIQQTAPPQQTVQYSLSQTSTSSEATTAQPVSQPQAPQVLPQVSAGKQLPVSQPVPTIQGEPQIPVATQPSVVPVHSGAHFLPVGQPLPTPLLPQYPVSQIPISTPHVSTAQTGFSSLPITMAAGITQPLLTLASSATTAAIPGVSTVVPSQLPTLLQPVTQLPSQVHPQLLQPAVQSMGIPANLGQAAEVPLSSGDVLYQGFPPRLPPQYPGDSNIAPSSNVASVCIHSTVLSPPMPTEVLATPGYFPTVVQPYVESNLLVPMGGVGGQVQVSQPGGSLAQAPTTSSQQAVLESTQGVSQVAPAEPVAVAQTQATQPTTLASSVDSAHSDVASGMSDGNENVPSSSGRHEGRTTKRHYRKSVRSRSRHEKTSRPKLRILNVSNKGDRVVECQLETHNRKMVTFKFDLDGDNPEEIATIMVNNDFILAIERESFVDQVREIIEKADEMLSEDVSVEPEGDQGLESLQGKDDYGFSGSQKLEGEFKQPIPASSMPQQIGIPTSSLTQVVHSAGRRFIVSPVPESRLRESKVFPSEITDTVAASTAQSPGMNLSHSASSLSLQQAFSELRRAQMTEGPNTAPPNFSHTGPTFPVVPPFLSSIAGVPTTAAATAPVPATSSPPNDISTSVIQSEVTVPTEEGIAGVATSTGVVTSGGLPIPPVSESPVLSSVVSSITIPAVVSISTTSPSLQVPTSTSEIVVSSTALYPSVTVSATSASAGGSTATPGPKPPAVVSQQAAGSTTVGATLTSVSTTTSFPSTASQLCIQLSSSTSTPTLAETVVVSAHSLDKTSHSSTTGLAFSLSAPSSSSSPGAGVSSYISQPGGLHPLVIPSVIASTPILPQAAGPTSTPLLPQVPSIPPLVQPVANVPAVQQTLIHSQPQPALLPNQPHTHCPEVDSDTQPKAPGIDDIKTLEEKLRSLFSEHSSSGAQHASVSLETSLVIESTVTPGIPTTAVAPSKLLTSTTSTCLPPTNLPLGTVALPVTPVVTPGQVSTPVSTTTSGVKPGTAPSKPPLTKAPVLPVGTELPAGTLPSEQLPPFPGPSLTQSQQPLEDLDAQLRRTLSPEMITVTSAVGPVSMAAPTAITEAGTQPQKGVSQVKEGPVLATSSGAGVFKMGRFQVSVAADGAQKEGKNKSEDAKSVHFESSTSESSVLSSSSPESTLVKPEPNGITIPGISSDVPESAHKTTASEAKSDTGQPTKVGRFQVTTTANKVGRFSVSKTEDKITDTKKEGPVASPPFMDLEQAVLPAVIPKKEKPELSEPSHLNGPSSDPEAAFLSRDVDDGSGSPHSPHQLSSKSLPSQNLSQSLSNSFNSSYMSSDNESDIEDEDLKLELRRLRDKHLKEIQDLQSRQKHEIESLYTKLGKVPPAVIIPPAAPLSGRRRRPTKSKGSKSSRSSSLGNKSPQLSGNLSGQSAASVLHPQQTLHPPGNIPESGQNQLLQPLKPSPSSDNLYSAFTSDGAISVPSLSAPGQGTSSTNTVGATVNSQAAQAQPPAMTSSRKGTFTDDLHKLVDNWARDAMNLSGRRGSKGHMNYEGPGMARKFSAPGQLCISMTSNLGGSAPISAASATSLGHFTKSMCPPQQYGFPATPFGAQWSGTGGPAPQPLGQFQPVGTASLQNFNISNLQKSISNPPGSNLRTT
In assay [15] the target is T8, p70S6K(h) (Homo sapiens, UniProt P23443).
T8 construct: gene RPS6KB1
In short, it runs like this: as §1

Where [16] appears, read: read-out: Residual activity (%) 5at.
Where [17] appears, read: read-out: Residual activity (%) 5ay.
The mark [18] stands for this setting: read-out: Residual activity (%) 5as.
Setting [19] is: read-out: Residual activity (%) Spautin-1 5aa.

T7 sequence (P57059 whole entry): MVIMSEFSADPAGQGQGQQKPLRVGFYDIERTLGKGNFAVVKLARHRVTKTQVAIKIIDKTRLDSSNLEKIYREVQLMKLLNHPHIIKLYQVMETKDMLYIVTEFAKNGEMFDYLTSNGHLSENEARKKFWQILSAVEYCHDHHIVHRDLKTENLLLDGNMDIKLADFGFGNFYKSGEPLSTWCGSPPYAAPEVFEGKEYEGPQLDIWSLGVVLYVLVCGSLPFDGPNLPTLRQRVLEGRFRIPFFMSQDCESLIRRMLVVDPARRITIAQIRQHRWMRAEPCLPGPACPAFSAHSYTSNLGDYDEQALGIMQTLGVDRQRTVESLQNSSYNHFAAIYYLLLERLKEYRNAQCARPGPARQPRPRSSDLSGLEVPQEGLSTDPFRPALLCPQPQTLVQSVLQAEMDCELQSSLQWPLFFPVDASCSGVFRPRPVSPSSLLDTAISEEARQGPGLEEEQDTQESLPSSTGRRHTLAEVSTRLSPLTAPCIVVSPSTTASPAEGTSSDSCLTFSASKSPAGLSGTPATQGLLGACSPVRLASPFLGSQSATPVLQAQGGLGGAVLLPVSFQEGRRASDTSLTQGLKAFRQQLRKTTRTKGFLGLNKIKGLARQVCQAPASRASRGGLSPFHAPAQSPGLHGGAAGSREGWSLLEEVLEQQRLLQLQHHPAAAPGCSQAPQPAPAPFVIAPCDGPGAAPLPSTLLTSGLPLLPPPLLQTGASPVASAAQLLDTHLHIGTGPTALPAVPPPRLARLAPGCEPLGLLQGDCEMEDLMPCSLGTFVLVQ
Sequence of JAK1(h) (P23458 whole entry): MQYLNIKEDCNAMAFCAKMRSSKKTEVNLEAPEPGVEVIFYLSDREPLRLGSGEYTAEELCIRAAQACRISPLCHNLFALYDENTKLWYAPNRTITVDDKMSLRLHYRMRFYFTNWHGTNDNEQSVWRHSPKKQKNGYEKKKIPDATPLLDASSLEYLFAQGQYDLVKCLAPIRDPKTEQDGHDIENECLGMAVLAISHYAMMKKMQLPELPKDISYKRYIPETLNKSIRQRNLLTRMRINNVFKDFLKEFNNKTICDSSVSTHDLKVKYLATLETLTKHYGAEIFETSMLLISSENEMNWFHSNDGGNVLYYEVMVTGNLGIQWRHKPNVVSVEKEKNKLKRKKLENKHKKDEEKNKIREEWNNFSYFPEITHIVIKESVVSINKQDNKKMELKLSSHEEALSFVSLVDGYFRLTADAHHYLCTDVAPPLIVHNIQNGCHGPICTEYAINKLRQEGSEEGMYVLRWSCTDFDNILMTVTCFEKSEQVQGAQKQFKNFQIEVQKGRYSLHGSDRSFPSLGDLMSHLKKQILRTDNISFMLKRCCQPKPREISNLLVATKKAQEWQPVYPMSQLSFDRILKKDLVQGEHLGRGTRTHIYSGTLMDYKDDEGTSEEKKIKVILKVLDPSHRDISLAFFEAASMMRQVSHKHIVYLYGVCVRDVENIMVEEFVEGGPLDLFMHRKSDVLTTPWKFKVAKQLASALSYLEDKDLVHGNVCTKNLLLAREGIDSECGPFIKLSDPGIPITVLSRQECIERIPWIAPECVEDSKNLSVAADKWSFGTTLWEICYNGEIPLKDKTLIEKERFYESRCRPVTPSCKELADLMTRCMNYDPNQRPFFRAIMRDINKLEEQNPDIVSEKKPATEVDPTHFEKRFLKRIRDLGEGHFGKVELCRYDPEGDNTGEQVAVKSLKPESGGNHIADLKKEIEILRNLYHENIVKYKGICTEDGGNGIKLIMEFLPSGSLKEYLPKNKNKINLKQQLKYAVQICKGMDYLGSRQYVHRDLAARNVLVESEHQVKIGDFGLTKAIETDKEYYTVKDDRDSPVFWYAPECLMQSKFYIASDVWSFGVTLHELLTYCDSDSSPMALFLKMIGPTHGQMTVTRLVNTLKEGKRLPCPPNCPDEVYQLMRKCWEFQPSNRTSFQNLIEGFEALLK

In the case of `Fc1ccc2ncnc(NCCc3ccc(Cl)cc3)c2c1` [5at, N-[2-(4-Chlorophenyl)Ethyl]-6-Fluoro-4-Quinazolinamine], the remaining activity at 10 µM in [1] (setting [16]) was 86%; in assay [2] (setting [16]), 112%; in [3] (setting [16]) it was 87%; in assay [4] (setting [16]), 99%; in [5] (setting [16]), 72%; in [6] (setting [16]), 97%. The remaining activity at 10 µM in assay [7] (setting [16]) came out at 80%; in assay [8] (setting [16]) it was 94%; in [9] (setting [16]), 93%; in assay [10] (setting [16]), 79%; in assay [11] (setting [16]), 86%; in assay [12] (setting [16]), 100%. Further, the remaining activity at 10 µM amounted to 63% in assay [13] (setting [16]), 92% in assay [14] (setting [16]) and 83% in assay [15] (setting [16]).

Take `COc1ccc2ncnc(Nc3cccc(F)c3)c2c1` [5ay, N-(3-Fluorophenyl)-6-Methoxy-4-Quinazolinamine]: the remaining activity at 10 µM is 90% in assay [1] (setting [17]); 30% in assay [2] (setting [17]); 90% in assay [3] (setting [17]); 90% in assay [4] (setting [17]); 64% in [5] (setting [17]); 80% in [6] (setting [17]). For the same compound, the remaining activity at 10 µM was 19% in assay [7] (setting [17]); 91% in [8] (setting [17]); 103% in assay [9] (setting [17]); 86% in [10] (setting [17]); 74% in [11] (setting [17]); 103% in assay [12] (setting [17]). Besides, the remaining activity at 10 µM in assay [13] (setting [17]) worked out at 65%; in assay [14] (setting [17]), 75%; in [15] (setting [17]) it was 76%.

With `Fc1ccc(CCNc2ncnc3ccc(F)cc23)cc1` [5as, 6-Fluoro-N-[2-(4-Fluorophenyl)Ethyl]-4-Quinazolinamine], the remaining activity at 10 µM in assay [1] (setting [18]) came out at 88%; in assay [2] (setting [18]), 89%; in [3] (setting [18]), 84%; in assay [4] (setting [18]), 93%; in [5] (setting [18]), 76%; in assay [6] (setting [18]), 85%. Moreover, the remaining activity at 10 µM in [7] (setting [18]) worked out at 83%; in assay [8] (setting [18]), 95%; in assay [9] (setting [18]), 99%; in assay [10] (setting [18]) it was 94%; in assay [11] (setting [18]), 90%; in assay [12] (setting [18]), 99%. The remaining activity at 10 µM in assay [13] (setting [18]) turned out to be 83%; in assay [14] (setting [18]), 81%; in assay [15] (setting [18]), 81%.

As to `Fc1ccc(CNc2ncnc3ccc(F)cc23)cc1` [5aa, 6-Fluoro-N-(4-fluorobenzyl)-4-Quinazolinamine], the remaining activity at 10 µM in assay [1] (setting [19]) was 93%; in assay [2] (setting [19]), 85%; in assay [3] (setting [19]), 100%; in [4] (setting [19]), 117%; in [5] (setting [19]) it was 97%; in assay [6] (setting [19]) it was 79%. Further, the remaining activity at 10 µM in assay [7] (setting [19]) came out at 93%; in assay [8] (setting [19]), 98%; in [9] (setting [19]), 102%; in assay [10] (setting [19]) it was 89%; in assay [11] (setting [19]), 98%; in assay [12] (setting [19]), 95%. For the same compound, the remaining activity at 10 µM in [13] (setting [19]) turned out to be 72%; in assay [14] (setting [19]), 78%; in [15] (setting [19]), 91%.
